In ChEMBL document CHEMBL5257083, “Identification of a Noxo1 inhibitor by addition of a polyethylene glycol chain” (Bioorg Med Chem, 2023):
Activity calls are given as the source filed them. No cut-off for these calls is given here.

How the values were obtained:
[1] = Inhibition of 6His tagged NOXO1 (149 to 286 residues) (unknown origin) expressed in Escherichia coli BL21 (DE3)-CYBA (unknown origin) protein-protein interaction assessed as apparent dissociation constant at 200 uM by isothermal titration calorimetry; set-up: species or system Homo sapiens; conditions: read-out: Kd(app)
[2] = Cytoprotective activity in human Keratinocyte assessed as fold decrease in UV-radiation induced DNA damage preincubated for 24 hrs followed by UV exposure and measured after 24 hrs by immunohistological analysis; type: functional; conditions: time 48 hrs
[3] = Cytotoxicity against human Keratinocyte assessed as cell viability at 1 uM incubated for 48 hrs by MTT assay (reference value: 100 + /-7 %); type: toxicity, cell-based; conditions: keratinocytes, read-out: Activity
[4] = species on record: Homo sapiens; experiment: Inhibition of 6His tagged NOXO1 (149 to 286 residues) (unknown origin) expressed in Escherichia coli BL21 (DE3)-CYBA (unknown origin) protein-protein interaction by MALDI-TOF-MS analysis
[5] = molecular target: T1, NADPH oxidase organizer 1 (Homo sapiens) (UniProt Q8NFA2); experiment: Binding affinity to 6His tagged NOXO1 (149 to 286 residues) (unknown origin) expressed in Escherichia coli BL21 (DE3) assessed as change in enthalpy at 800 uM by isothermal titration calorimetry
T1 sequence (whole entry): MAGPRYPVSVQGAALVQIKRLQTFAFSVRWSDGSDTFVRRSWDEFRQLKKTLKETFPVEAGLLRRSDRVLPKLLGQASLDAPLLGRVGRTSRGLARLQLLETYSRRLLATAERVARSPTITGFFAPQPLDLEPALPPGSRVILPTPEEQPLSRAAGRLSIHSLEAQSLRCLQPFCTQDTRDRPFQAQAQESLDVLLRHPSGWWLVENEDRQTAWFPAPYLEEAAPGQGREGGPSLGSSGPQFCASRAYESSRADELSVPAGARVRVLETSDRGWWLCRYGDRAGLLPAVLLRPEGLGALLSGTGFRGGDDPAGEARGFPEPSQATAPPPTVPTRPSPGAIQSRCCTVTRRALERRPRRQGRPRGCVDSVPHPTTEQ

[6] = test system: Keratinocyte; experiment: Cytoprotective activity in human Keratinocyte assessed as effect on CPD intensity incubated for 24 hrs by immunohistological analysis; type: functional, cell-based
[7] = Cytoprotective activity in human Keratinocyte assessed as decrease in UV-radiation induced DNA damage by measuring CPD intensity preincubated for 24 hrs followed by UV exposure and measured after 24 hrs by immunohistological analysis (reference value: 0.003 a.u.); type: functional; conditions: time 48 hrs
[8] = test system: Keratinocyte; experiment: Cytotoxicity against human Keratinocyte incubated for 48 hrs by MTT assay; type: toxicity, cell-based
[9] = Inhibition of 6His tagged NOXO1 (149 to 286 residues) (unknown origin) expressed in Escherichia coli BL21 (DE3)-CYBA (unknown origin) protein-protein interaction assessed as apparent dissociation constant at 800 uM by isothermal titration calorimetry; set-up: species or system Homo sapiens; conditions: read-out: Kd(app)

## COCCOCCC(=O)N(C)Cc1ccccc1
[1]
  Kd: 2.3 µM

## COCCOCCC(=O)N1CCC(CNc2ccccc2-c2cccc(C(N)=O)c2)CC1
[1]
  Kd: 44 µM

## NC(=O)c1cccc(-c2ccccc2NCC2CCN(C(=O)CCOCCOCCOCCOCCNC(=O)CCCC[C@H]3SC[C@H]4NC(=O)N[C@H]43)CC2)c1
[2]
  fold change (FC): 175
[3]
  viability at 48 h, 1 µM: 101%
[4]
  inhibition: Active
[5]
  deltaH: 5.2 kcal/mol
[6]
  Activity: inactive
[1]
  Kd: 39 µM
[7]
  Activity: 0.004 a.u.
[8]
  Activity: Non-Toxic

## NC(=O)c1cccc(-c2ccccc2NCC2CCNCC2)c1
[9]
  Kd: 4.1 µM
[3]
  viability at 48 h, 1 µM: 106%
[8]
  Activity: Non-Toxic
